Reference: paper PMC11862990, “Utility of 6-aza-2-thiothymine in the synthesis of novel [1,2,4]triazolo[4,3-b][1,2,4]triazin-7-one derivatives: synthesis, structure elucidation, molecular docking and in vitro anti-lung cancer activity” (RSC Advances, 2025)
Where two headings read alike, the source gives them in different places. Marks after values point to notes of the source that are not given here.

Key:
[1] = tested on: A549 (lung carcinoma); assay: MTT cytotoxicity assay, A549; type: cell-based; settings: Homo sapiens; for cytotoxicity at 100 µg/mL: read-out: (%) Mortality A549; for IC50: 48 hour incubation
Description: (§1) Using specific human cancer cell lines, the anti-proliferative effectiveness of compounds 7a–j was evaluated in an in vitro assay. The anti-cancer activity of these compounds (7a–j) on various cancer cell lines, including PC3 (Prostate cell line), A549 (Lung carcinoma), PACA2 (Pancreatic cancer cell line) and BJ1 (normal skin fibroblast), was investigated in this study using the 3-(4,5-dimethylthiazol-2-yl)-2,5-diphenyltetrazolium bromide (MTT) test. Doxorubicin (Dox) was the standard medication used as a positive control.
(§2) In the initial screening trial, a single dosage concentration of 100 μg ml^−1 was applied for 48 hours. The cytotoxicity of the treated cells was determined by calculating the cell death percentage (% mortality) as a percentage of untreated cells (Table 2).
(§3) All incubations were performed at 37 °C in a 5% CO2 incubator with a 95% humidified environment (Sheldon, TC2323; Cornelius, OR, USA). 96-well micro titer polypropylene plates were seeded with cells at a density of 10^4 cells per well in complete DMEM media, and the cells were allowed to adhere for 24 hours. After the media was aspirated, the tested compounds were added to the cells in a single dose of 100 μg ml^−1 in DMSO. Each well received 40 μl of MTT salt (2.5 g ml^−1) following a 48 hour incubation period. 200 μl of 10% sodium dodecyl sulfate (SDS) was added to each well after the reaction ended, and any formazan crystals that could have been produced were dissolved by two hours of incubator heating to 37 °C. The amount of formazan product was measured at 595 nm using a microplate reader (Bio-Rad Laboratories, model 3350, California, USA) with a reference wavelength of 690 nm, serving as a backdrop. Rather than the drugs under investigation, the medium was applied to the untreated cells (negative control). The examined compounds were dissolved in dimethylsulfoxide (DMSO), and the final concentration in the cells was less than 0.2%. For each compound and the control, the solvent concentration was the same.

[2] = tested on: lung cancer cell lines (A549); assay: DNA damage evaluation using the comet assay; type: cell-based, human; settings: for DNA damaged cells% (mean ± SEM): A549, comet assay, negative control 11.59 ± 0.65; for Class 0 cells (no tail) / Class 1 cells (tail length < diameter of the nucleus) / Class 2 cells (tail length between 1× and 2× the diameter of the nucleus) / Class 3 cells (tail length > 2× the diameter of the nucleus) / No. of cells: Comets: A549, of 440 cells analyzed
Description: The determination of DNA damage via the comet assay was conducted using lung cancer cell lines, following the methodology established by Olive et al. (1990).[32] Following trypsin treatment to generate a single-cell suspension, approximately 1.5 × 10^4 cells were embedded in 0.75% low-gelling-temperature agarose and swiftly pipetted onto a pre-coated microscope slide.
The samples underwent lysis for 4 hours at 50 °C in a solution containing 0.5% SDS and 30 mM EDTA at pH 8.0. Following an overnight rinse at room temperature in a Tris/borate/EDTA buffer, pH 8.0, samples underwent electrophoresis for 25 minutes at 0.6 V cm^−1 and were subsequently stained with propidium iodide. The slides were examined with a fluorescence microscope equipped with a CCD camera, and 150 individual comet images were analyzed from each sample for a tail moment, DNA content, and percentage of DNA in the tail.
The non-overlapping cells were randomly selected and assigned a score on a scale of 0–3 based on the comet tail length migration and the relative proportion of DNA in the nucleus. Class 0 indicates no detectable DNA damage and no tail; class 1 indicates a tail length less than the diameter of the nucleus; class 2 indicates a tail length between 1× and 2× the nuclear diameter; and class 3 indicates a tail longer than 2× the diameter of the nucleus (Collins et al., 1997).[33]

[3] = tested on: PACA2 (pancreatic cancer cell line); assay: MTT cytotoxicity assay, PACA2; type: cell-based; settings: Homo sapiens; for cytotoxicity at 100 µg/mL: read-out: (%) Mortality PACA2
Description: as §1, §2, §3

[4] = tested on: BAX gene expression in lung cancer cell lines; assay: qRT-PCR gene expression, BAX; type: cell-based, human; settings: treated lung cancer cell line vs negative control; order 7g, Dox, 7a
Description: The RNeasy Mini Kit (Qiagen, Hilden, Germany), augmented with a DNaseI (Qiagen) digestion step, was employed to extract total RNA from lung cancer cell lines following the manufacturer's procedure. The isolated total RNA was treated with one unit of RQ1 RNAse-free DNAse (Invitrogen, Germany) to eliminate DNA remnants, re-suspended in DEPC-treated water, and quantified photometrically at 260 nm. The purity of total RNA was evaluated using the 260/280 nm ratio, which ranged from 1.8 to 2.1.[27]
Furthermore, integrity was confirmed using ethidium bromide-stained examination of 28S and 18S bands via formaldehyde-containing agarose gel electrophoresis. Aliquots were utilized immediately for reverse transcription (RT); otherwise, they were preserved at −80 °C.
The poly(A) + RNA extracted from the lung cancer cell lines was reverse transcribed into the cDNA in a total amount of 20 μl utilizing the Revert Aid TM First Strand cDNA Synthesis Kit (Fermentas, Germany). A total of 5 μg of RNA was utilized with a master mix. The master mix comprised 50 mM MgCl2, 10× RT buffer (50 mM KCl; 10 mM Tris–HCl; pH 8.3), 10 mM of each dNTP, 50 μM oligo-dT primer, 20 IU ribonuclease inhibitor (50 kDa recombinant enzyme to suppress RNase activity), and 50 IU MuLV reverse transcriptase. Each sample mixture was centrifuged for 30 seconds at 1000 g and thereafter transferred to the thermocycler. The RT reaction was conducted at 25 °C for 10 minutes, subsequently at 42 °C for 1 hour, and concluded with a denaturation phase at 99 °C for 5 minutes. Subsequently, the reaction tubes containing RT-prepared samples were rapidly chilled in an ice chamber prior to cDNA amplification via the quantitative real-time polymerase chain reaction (qRT-PCR).
The cDNA copy number of lung cancer cell lines was determined using the StepOne™ Real-Time PCR System from Applied Biosystems (Thermo Fisher Scientific, Waltham, MA, USA). […]
The reaction protocol was divided into three stages. […] The relative quantification of the target gene to the reference gene was assessed using the 2^−ΔΔCT method.[29–31]

[5] = A549, 100 μg ml^−1, 48 hours, MTT
[6] = PaCa-2, 100 μg ml^−1, 48 hours, MTT

| Structure (SMILES) | cytotoxicity at 100 µg/mL [1, 5] | IC50 ([1]; A549, MTT) | DNA damaged cells% (mean ± SEM) [2] | Class 0 cells (no tail) [2] | Class 1 cells (tail length < diameter of the nucleus) [2] | Class 2 cells (tail length between 1× and 2× the diameter of the nucleus) [2] | Class 3 cells (tail length > 2× the diameter of the nucleus) [2] | No. of cells: Comets [2] | cytotoxicity at 100 µg/mL [3, 6] | BAX (pro-apoptotic gene) expression level [4] | cytotoxicity at 100 µg/mL ([1]; A549, 48 h) | cytotoxicity at 100 µg/mL ([3]; PaCa-2, 48 h) | IC50 ([3]; PaCa-2, MTT, 48 hour incubation) |
| --- | --- | --- | --- | --- | --- | --- | --- | --- | --- | --- | --- | --- | --- |
| Cc1nn2c(C)nn(-c3ccc([N+](=O)[O-])cc3)c2nc1=O [Compound 7a, 3,6-Dimethyl-1-(4-nitrophenyl)-[1,2,4]triazolo[4,3-b][1,2,4]triazin-7(1H)-one] | 80.4 ± 0.66% | 36.6 µM | 28.18 ± 1.25^a % | 316 | 37 | 45 | 42 | 124 | 20.4 ± 0.11% | elevated |  |  |  |
| COc1ccc(-c2nn(-c3ccccc3)c3nc(=O)c(C)nn23)cc1 [Compound 7g, 3-(4-Methoxyphenyl)-6-methyl-1-phenyl-[1,2,4]triazolo[4,3-b][1,2,4]triazin-7(1H)-one] | 82.3 ± 0.82% | 40.1 µM | 21.14 ± 0.85^b % | 347 | 32 | 38 | 23 | 93 | 13.4 ± 1.15% | elevated |  |  |  |
| COc1cccc2c1C(=O)c1c(O)c3c(c(O)c1C2=O)C[C@@](O)(C(=O)CO)C[C@@H]3O[C@H]1C[C@H](N)[C@H](O)[C@H](C)O1 [Dox, Doxorubicin, reference compound] |  | 43.8 µM | 23.86 ± 1.11^b % | 335 | 34 | 41 | 30 | 105 |  | elevated | 100% | 100% | 52.1 µM |
